According to PMC11320581 (ACS Infectious Diseases, 2024):

Legend:
[1] = target: E. coli gyrase (Escherichia coli, UniProt P0AES4+P0AES6); assay type: biochemical
[2] = test system: B. anthracis gyrase; assay type: biochemical, Bacillus anthracis
[3] = test system: M. tuberculosis gyrase; conditions: cited from earlier work

Sequence of E. coli gyrase (P0AES4 whole entry, one chain of several): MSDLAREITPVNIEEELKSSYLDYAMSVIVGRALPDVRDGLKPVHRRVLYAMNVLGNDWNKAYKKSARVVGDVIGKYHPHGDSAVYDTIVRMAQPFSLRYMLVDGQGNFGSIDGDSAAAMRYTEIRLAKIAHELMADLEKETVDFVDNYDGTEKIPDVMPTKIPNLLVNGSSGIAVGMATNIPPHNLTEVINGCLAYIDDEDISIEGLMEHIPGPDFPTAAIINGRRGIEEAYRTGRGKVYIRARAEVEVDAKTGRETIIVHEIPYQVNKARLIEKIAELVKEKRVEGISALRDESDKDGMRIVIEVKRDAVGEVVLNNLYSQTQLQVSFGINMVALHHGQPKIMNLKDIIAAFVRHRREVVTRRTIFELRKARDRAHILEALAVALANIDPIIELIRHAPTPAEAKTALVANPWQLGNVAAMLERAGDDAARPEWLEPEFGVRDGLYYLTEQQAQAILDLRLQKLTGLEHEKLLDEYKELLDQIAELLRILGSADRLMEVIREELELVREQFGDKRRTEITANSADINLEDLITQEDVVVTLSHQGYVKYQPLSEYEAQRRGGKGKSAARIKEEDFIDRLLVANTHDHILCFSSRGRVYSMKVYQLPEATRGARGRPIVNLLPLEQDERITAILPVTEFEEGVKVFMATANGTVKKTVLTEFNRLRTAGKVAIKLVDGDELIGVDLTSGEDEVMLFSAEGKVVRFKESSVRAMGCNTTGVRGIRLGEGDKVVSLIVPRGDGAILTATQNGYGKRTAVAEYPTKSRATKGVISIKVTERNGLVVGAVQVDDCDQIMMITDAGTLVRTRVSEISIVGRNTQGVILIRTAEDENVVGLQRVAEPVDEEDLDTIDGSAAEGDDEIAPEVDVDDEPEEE

CC1CN2c3c(cc4c(OCC5CCC(=O)N5)noc4c3F)CC3(C(=O)NC(=O)NC3=O)C2C(C)O1 (centres unmarked) [H3D-005722]
single-stranded compared with double-stranded DNA breaks with gyrase [1]: higher levels of single-stranded than double-stranded DNA breaks
total DNA breaks with gyrase relative to topoisomerase IV [1]: higher levels of total DNA breaks mediated by gyrase over topoisomerase IV
single-stranded compared with double-stranded DNA breaks with gyrase [2]: higher levels of single-stranded than double-stranded DNA breaks
total DNA breaks with gyrase relative to topoisomerase IV [2]: higher levels of total DNA breaks mediated by gyrase over topoisomerase IV
DNA cleavage mediated by M. tuberculosis gyrase compared with zoliflodacin [3]: higher levels

C[C@@H]1CN2c3c(cc4c(N5C(=O)OC[C@@H]5C)noc4c3F)CC3(C(=O)NC(=O)NC3=O)[C@H]2[C@H](C)O1 [zoliflodacin, Zoliflodacin]
double-stranded DNA breaks with gyrase relative to topoisomerase IV [1]: ~2 times
single-stranded compared with double-stranded DNA breaks with gyrase [1]: more gyrase-mediated single-stranded than double-stranded DNA breaks
total DNA breaks with gyrase relative to topoisomerase IV [1]: 2.5 to 3 times
double-stranded DNA breaks with gyrase relative to topoisomerase IV [2]: ~2 times
single-stranded compared with double-stranded DNA breaks with gyrase [2]: more gyrase-mediated single-stranded than double-stranded DNA breaks
total DNA breaks with gyrase relative to topoisomerase IV [2]: 2.5 to 3 times
